These results are taken from ChEMBL document CHEMBL5725438, “Tetrazole derivatives and their use as potassium channel modulators” (2017).

In this assay the target is Intermediate conductance calcium-activated potassium channel protein 4 (Homo sapiens, UniProt O15554). Description: Inhibition Assay: Human HEK293 cells over-expressing human IK are grown in culture medium (DMEM supplemented with 10% foetal bovine serum), in polystyrene culture flasks ([…]) in a humidified atmosphere of 5% CO2 in air, at 37° C. Cell confluence should be 80-90% on day of plating. Cells are rinsed with 4 mL of PBS (phosphate buffered saline) and incubated 2 min with 1 mL of Trypsin-EDTA. After addition of 25 mL of culture medium cells are re-suspended by trituration with a 25 mL pipette.The cells are seeded at a density of 3×10^6 cells/mL (25 μL/well) in black-walled, clear bottom, 384-well plates pre-treated with 0.01 g/L poly-D-lysin (20 μL/well for ≧30 min). Plated cells were allowed to proliferate for 24 h before loading with dye.BTC-AM ([…], Invitrogen) is added 25.5 μl DMSO. The BTC-AM stock solution (2 mM) is diluted to a final concentration of 2 μM in Cl+ free assay buffer (in mM: 140 Na+-gluconate, 2.5 K+-gluconate, 6 Ca2+-gluconate, 1 Mg2+ gluconate, 5 glucose, 10 HEPES, pH 7.3) containing 2 μM ouabain, 2 mM amaranth and 1 mM tartrazine.The culture medium is aspirated from the wells, and 25 μl of the BTC-AM loading solution are added to each well. The cells are incubated at 37° C. for 60 min.After the loading period, the Tl+-sensitive BTC fluorescence signal is measured over time using a FLIPR.
Intermediate conductance calcium-activated potassium channel protein 4, sequence (O15554 whole entry): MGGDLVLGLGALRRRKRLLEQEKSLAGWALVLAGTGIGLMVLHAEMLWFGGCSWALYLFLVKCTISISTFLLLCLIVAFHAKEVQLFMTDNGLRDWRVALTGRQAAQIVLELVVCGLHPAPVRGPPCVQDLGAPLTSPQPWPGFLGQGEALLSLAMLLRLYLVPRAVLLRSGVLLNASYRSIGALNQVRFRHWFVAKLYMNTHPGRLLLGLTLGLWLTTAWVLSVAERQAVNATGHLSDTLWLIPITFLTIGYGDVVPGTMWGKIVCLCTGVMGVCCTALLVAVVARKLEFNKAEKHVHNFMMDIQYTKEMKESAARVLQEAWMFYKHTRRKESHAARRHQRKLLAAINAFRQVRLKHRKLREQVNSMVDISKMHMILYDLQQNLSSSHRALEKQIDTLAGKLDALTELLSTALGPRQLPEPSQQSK

Turning to `COCCNc1ccccc1-c1ccccc1-c1nnnn1-c1ccccc1F`, the IC50 was determined as 680 nM.
